From US20250011869A1, “TLR3 INHIBITORS FOR USE IN THE TREATMENT OF DISEASES ASSOCIATED WITH CARDIOVASCULAR CALCIFICATION” (priority 2021, published 2025)

Columns and labels:
[1] = tested on: TLR3; assay: TLR3 expression in valvular interstitial cells (immunoblot / RT-qPCR); type: cell-based, human; details: RT-qPCR; Poly(I:C) 2, 4, 6, 24 and 48 h (FIG. 4A)
Protocol: (§1) Valvular interstitial cells from patients undergoing aortic valve replacement or cardiac transplantation were isolated via collagen digestion as described previously^6. Valves were rinsed in EBSS and subsequently subjected to collagenase digestion (Sigma, St. Louis, MO; 2.5 mg/mL in M199) for 30 minutes at 37° C. Thereafter, tissue samples were vortexed and supernatant containing endothelial cells was removed. Again, collagenase was added to the remaining valve tissue (1 mg/mL) for 3 h at 37° C. For mechanical disintegration of the tissue, vortexing and repeated aspiration via a pipette was performed. The supernatant was transferred into a new tube and subjected to centrifugation (300 g for 8 minutes at 4° C.). Subsequently, cells were resuspended in M199 medium containing 10% fetal calve serum, penicillin, streptomycin, L-Glutamine and amphotericin B (2.5 mg/L).
(§2) All cells were cultivated under standard conditions (37° C., supplied with 5% CO2). Passaging of the cells was performed at 70-90% confluency, and cells were only used until passage 7 as described previously^6. […]
(§3) RT-PCR was performed as described previously^17. […] The result for the relative gene expression was calculated by the 2-DDCt method. Mean Ct values were calculated from double determinations and samples were considered negative if the Ct values exceeded 4017. […]

[2] = tested on: VICs; assay: Calcification assay of VICs in osteogenic medium (Alizarin Red S, alkaline phosphatase); type: cell-based, human; details: VICs in osteoblastic medium
Protocol: For functional evaluation of osteoblastic activity, VICs were subjected to a calcification assay. Cells were cultured in osteogenic medium including 10 mmol/L beta-glycerophosphate, 10 nmol/L vitamin D3, and 10 nmol/L dexamethasone as described previously^4. The medium was changed every three days. Subsequently, supernatant was analyzed for alkaline phosphatase activity using the commercially available alkaline phosphatase assay kit (Abcam, Cambridge, UK). After careful rinsing with PBS, cells were fixed with 4% paraformaldehyde, washed with distilled water and Alizarin Red S staining solution (Alfa Aesar, Haverhill, MA) was added upon the fixed cells for 20 minutes at room temperature (RT). Imaging of the staining was performed using a Zeiss Axioplan 2 microscope (Zeiss, Oberkochen, Germany). Images were processed using Adobe Photoshop CS5.1 for Mac (Adobe Systems Inc., San Jose, CA, USA) and analyzed with ImageJ software (National Institutes of Health, Bethesda, […]).

[3] = tested on: IFN-β; assay: IFN-β expression in VICs (RT-qPCR); type: cell-based, human; details: Poly(I:C) 2, 4, 6, 24 and 48 h (FIG. 4B)
Protocol: as §1, §2, §3

[4] = tested on: VICs; assay: RNA sequencing of VICs vs human osteoblasts; type: cell-based; details: Poly(I:C) 20 μg/mL, 72 h
Protocol: Total-RNA was isolated from five samples (VICs, cultured in calcification media and treated either 72 h with 20 μg/ml Poly(I:C), untreated controls, as well as human osteoblasts) and submitted to transcriptome analysis for the purpose of gene-expression profiling. For the RNA sequencing analysis in FIG. 5 the 2100 Bioanalyzer and RNA 6000 Nano LabChip kits (Agilent Technologies) was used to check for RNA integrity (all RINs >9). The TruSeq® Stranded mRNA HT technology was used for library preparation according to manufacturer's protocol and Illumina NextSeq® 500 1×75 bp single end sequencing was performed at the IMGM® laboratories (Martinsried, Germany). The RNA sequencing analysis in Figure S3 was performed at Novogene (UK) Co. using the NovaSeq 600 PE150.
All primary sequencing analyses were performed using CLC Genomics Workbench (9.5.3) including sequence QC and mapping to the human reference genome (GRCh38.p7). Differentially expression analyses were performed on raw count data and using an exact test based on negative binomial distribution (edgeR version 3.4.0) 10. P-values were adjusted according to the Benjamini-Hochberg method based on the false discovery rate (FDR). Only genes with at least four-fold change were considered. Over representation analysis for gene ontology and pathways on differentially expressed genes were performed using DAVID (6.8) 11 and ConsensusPathDB^12. Gene set enrichment analysis on log 2-fold change pre-ranked data was performed using GSEA software^13 and gene sets for biological hallmark processes and pathways (MSigDB), calcification signature as derived from respective literature, and signatures of differentially expressed genes for calcific aortic valve stenosis versus control^14 (reanalyzed data from GSE12644 using R package limma^15 including genes with more than two-fold change and FDR <0.05). Heat maps were generated using Genesis version 1.8.116 for log 2-fold change data.

[5] = tested on: TLR3 and IFN-β; assay: RT-PCR of human dermal fibroblasts (wild type, empty vector control, Tlr3−/− CRISPR); type: cell-based; details: 5 μg/ml, 6 h
Source text: (§4) Human dermal fibroblasts WT and Tlr3^−/− were kindly provided by the Jean-Laurent Casanova group and cultivated in DMEM with 4.5 g/L glucose (Lonza, Basel, Switzerland), 10% FCS (Sigma, St. Louis, MO), penicillin, streptomycin and L-Glutamine. Human dermal fibroblasts CTR cells were provided by the Villunger group and cultivated in DMEM with 4.5 g/L glucose (Lonza, Basel, Switzerland), 10% FCS (Sigma, St. Louis, MO), penicillin, streptomycin and L-Glutamine.
(§5) All cells were cultivated under standard conditions (37° C., supplied with 5% CO2). Passaging of the cells was performed at 70-90% confluency, and cells were only used until passage 7 as described previously^6. Polyinosinic: polycytidylic acid (Poly(I:C); Invivogen, San Diego, CA) was used to stimulate cells at a concentration of either 20 μg/mL or 5 μg/ml, depending on the assay. For blockade of TLR3, the commercially available dsRNA/TLR3 inhibitor ((R)-2-(3-Chloro-6-fluorobenzo [b] thiophene-2-carboxamido)-3-phenyl-propanoic acid) was used (Merck, Darmstadt, Germany) at a concentration of 1 μg/ml as described previously^1,7. LY294002 (Invivogen, San Diego, CA), a PI3K inhibitor, was used at a concentration of 10 μM. For blockade of IFNAR1, a specific blocking antibody (Invitrogen, Carlsbad, CA) was used at a concentration of 4 μg/ml. A stable HEK (human embryonic kidney) reporter cell line (TLR3/ISRE LUCPorter; Imgenex, USA) was purchased for luminometer assay experiments. Cells were cultivated according to the manufacturer's protocol in DMEM with 4.5 g/L glucose (Lonza, Switzerland), 10% FCS (Sigma, St. Louis, MO), penicillin/streptomycin, and 4 mM L-glutamine and […] puromycin (Gibco, USA) as selection agent. Reporter experiments were performed as described previously^8. For the protein expression SF21 cells were purchased at ThermoFisher (#11497013) and cultivated in Gibco™ Sf-900™ SFM supplemented with penicillin, streptomycin and L-Glutamine. In vitro stretch was applied using a Flexcell bioreactor (Flexcell International Corporation, Burlington, NC) applying 15% cyclic strain as described previously^9.
RT-PCR was performed as described previously^17. Total RNA was extracted from homogenized tissue or cell lysates using the Total RNA Miniprep Kit (New England BioLabs, Frankfurt, Germany) according to the manufacturer's instructions. We performed the PCR reaction in a final volume of 12.5 μL containing 2.5 μL of cDNA, 6.25 μL of Master Mix, 1 μL of fluorogenic hybridization probe, 10 μM of primer and 2.75 μL of distilled water. […] The result for the relative gene expression was calculated by the 2-DDCt method. Mean Ct values were calculated from double determinations and samples were considered negative if the Ct values exceeded 4017. […]

[6] = tested on: TLR3-RUNX2 pathway; assay: Immunoblot of human dermal fibroblasts for the TLR3-RUNX2 pathway; type: cell-based; details: wild type and empty vector control cells; 5 μg/ml, 6 h
Source text: as §4, §5
Protein from tissue or cell lysates was extracted using a Radioimmunoprecipitation Assay Lysis Puffer (150 mM NaCl, 1% NP-40, 0.5% Sodium Deoxycholate, 0.1% SDS and 50 mM Tris (pH 8,0)). For the extraction of nuclear or cytosolic proteins the NE-PER™ Nuclear and Cytoplasmic Extraction Reagents Kit (ThermoScientific, #78835) was used.
Protein was thereafter separated on SDS-polyacrylamide gels of different percentages and transferred to nitrocellulose membranes as described previously^18. After blocking with either 5% BSA in TBS 0.1% Tween, 5% milk in TBS 0.1% Tween or StartingBlock™ (TBS) Blocking buffer (ThermoScientific, #37542) membranes were incubated with primary antibodies listed in Table 2.

Polyinosinic: polycytidylic acid [Poly(I:C)]
TLR3 expression in VICs [1]: increased expression
calcification / production of calcific nodules ([2]; Poly(I:C) 20 μg/mL or inhibitor 26 μM, Alizarin Red S): enhanced the production of calcific nodules
alkaline phosphatase (ALP) activity ([2]; supernatant): increased the activity
IFN-β expression in VICs [3]: increased expression
transcriptome of treated VICs [4]: induces an osteoblastic transcriptome
genes downregulated in both Poly(I:C)-treated VICs and human osteoblasts compared to untreated VICs ([4]; at least four-fold change): 199 genes
genes upregulated in both Poly(I:C)-treated VICs and human osteoblasts compared to untreated VICs ([4]; at least four-fold change): 118 genes
transcription of TLR3 and IFN-β ([5]; Tlr3−/− fibroblasts): no response
transcription of TLR3 and IFN-β ([5]; wild type and empty vector control fibroblasts): induced transcription of TLR3 and IFN-β
IFNAR1 level [6]: upregulation of IFNAR1
levels of osteoblastic transcription factor RUNX2 [6]: increased levels
phosphorylation of IRF3 [6]: phosphorylation of IRF3
